Source: US20220088016A1, “CANCER TREATMENT USING MULTI-TARGETED KINASE INHIBITOR IN COMBINATION OF PROTEIN KINASE BIOMARKERS” (ZHEJIANG CROWNMAB BIOTECH CO. LTD., priority 2019, published 2022)

Key:
Test in all cases: Kinase IC50 (Eurofins KinaseProfiler)
Assay type in all cases: biochemical
ZAK (h) = molecular target: T1, ZAK (h) (Homo sapiens, UniProt Q9NYL2)
T1 construct: purchased Eurofins
Procedure: (§1) CBT-102 were tested against each of the selected kinases using the Eurofins standard KinaseProfder assays and following the relevant standard operating procedures. The required volume of the 50× stock of test compound (CBT-102) was added to the assay well, before a reaction mix containing the enzyme and substrate was added. The reaction was initiated by the addition of ATP at the selected concentration. There was no pre-incubation of the compound with the enzyme/substrate mix prior to ATP addition.
(§2) Data are handled using a custom-built in-house analysis software. Results are expressed as kinase activity remaining, as a percentage of the DMSO control. This is calculated using the following formula: […]
(§3) For IC50 determinations, data are analyzed using XLFit version 5.3 (ID Business Solutions).

cKit (V654A) (h) = molecular target: T2, cKit (V654A) (h) (Homo sapiens, UniProt P10721, V654A)
T2 construct: purchased Eurofins (KinaseProfiler service)
Procedure: as §1, §2, §3

LOK (h) = molecular target: T3, LOK (h) (Homo sapiens, UniProt O94804)
T3 construct: purchased Eurofins (KinaseProfiler service)
Procedure: as §1, §2, §3

BRK (h) = molecular target: T4, BRK (h) (Homo sapiens, UniProt Q13882)
T4 construct: purchased Eurofins
Procedure: as §1, §2, §3

Flt3 (h) = molecular target: T5, Flt3 (h) (Homo sapiens, UniProt P36888)
T5 construct: purchased Eurofins (KinaseProfiler service)
Procedure: as §1, §2, §3

IGF-1R (h) = molecular target: T6, IGF-1R (h) (Homo sapiens, UniProt P08069)
T6 construct: purchased Eurofins (KinaseProfiler service)
Procedure: as §1, §2, §3

B-Raf (V599E) (h) = molecular target: T7, B-Raf (V599E) (h) (Homo sapiens, UniProt P15056, V600E)
T7 construct: purchased Eurofins
Procedure: as §1, §2, §3

SLK (h) = molecular target: T8, SLK (h) (Homo sapiens, UniProt Q9H2G2)
T8 construct: purchased Eurofins
Procedure: as §1, §2, §3

IRAK4 (h) = molecular target: T9, IRAK4 (h) (Homo sapiens, UniProt Q9NWZ3)
T9 construct: purchased Eurofins (KinaseProfiler service)
Procedure: as §1, §2, §3

cSRC (h) = molecular target: T10, cSRC (h) (Homo sapiens, UniProt P12931)
T10 construct: purchased Eurofins (KinaseProfiler service)
Procedure: as §1, §2, §3

TAK1 (h) = molecular target: T11, TAK1 (h) (Homo sapiens, UniProt O43318)
T11 construct: purchased Eurofins
Procedure: as §1, §2, §3

ErbB4 (h) = molecular target: T12, ErbB4 (h) (Homo sapiens, UniProt Q15303)
T12 construct: purchased Eurofins (KinaseProfiler service)
Procedure: as §1, §2, §3

IR (h) = molecular target: T13, IR (h) (Homo sapiens, UniProt P06213)
T13 construct: purchased Eurofins (KinaseProfiler service)
Procedure: as §1, §2, §3

Lck (h) = molecular target: T14, Lck (h) (Homo sapiens, UniProt P06239)
T14 construct: purchased Eurofins (KinaseProfiler service)
Procedure: as §1, §2, §3

B-Raf (h) = molecular target: T15, B-Raf (h) (Homo sapiens, UniProt P15056)
T15 construct: purchased Eurofins
Procedure: as §1, §2, §3

PKA (h) = molecular target: T16, PKA (h) (Homo sapiens, UniProt P17612)
T16 construct: purchased Eurofins
Procedure: as §1, §2, §3

Ret (h) = molecular target: T17, Ret (h) (Homo sapiens, UniProt P07949)
T17 construct: purchased Eurofins
Procedure: as §1, §2, §3

cKit (D816V) (h) = molecular target: T18, cKit (D816V) (h) (Homo sapiens, UniProt P10721, D816V)
T18 construct: purchased Eurofins (KinaseProfiler service)
Procedure: as §1, §2, §3

EphB4 (h) = molecular target: T19, EphB4 (h) (Homo sapiens, UniProt P54760)
T19 construct: purchased Eurofins (KinaseProfiler service)
Procedure: as §1, §2, §3

MLK1 (h) = molecular target: T20, MLK1 (h) (Homo sapiens, UniProt P80192)
T20 construct: purchased Eurofins (KinaseProfiler service)
Procedure: as §1, §2, §3

KDR (h) = molecular target: T21, KDR (h) (Homo sapiens, UniProt P35968)
T21 construct: purchased Eurofins (KinaseProfiler service)
Procedure: as §1, §2, §3

DDR1 (h) = molecular target: T22, DDR1 (h) (Homo sapiens, UniProt Q08345)
T22 construct: purchased Eurofins (KinaseProfiler service)
Procedure: as §1, §2, §3

FGFR4 (h) = molecular target: T23, FGFR4 (h) (Homo sapiens, UniProt P22455)
T23 construct: purchased Eurofins (KinaseProfiler service)
Procedure: as §1, §2, §3

Pim-1 (h) = molecular target: T24, Pim-1 (h) (Homo sapiens, UniProt P11309)
T24 construct: purchased Eurofins
Procedure: as §1, §2, §3

c-RAF (h) = molecular target: T25, c-RAF (h) (Homo sapiens, UniProt P04049)
T25 construct: purchased Eurofins (KinaseProfiler service)
Procedure: as §1, §2, §3

EphA1 (h) = molecular target: T26, EphA1 (h) (Homo sapiens, UniProt P21709)
T26 construct: purchased Eurofins (KinaseProfiler service)
Procedure: as §1, §2, §3

RIPK2 (h) = molecular target: T27, RIPK2 (h) (Homo sapiens, UniProt O43353)
T27 construct: purchased Eurofins
Procedure: as §1, §2, §3

EphB2 (h) = molecular target: T28, EphB2 (h) (Homo sapiens, UniProt P29323)
T28 construct: purchased Eurofins (KinaseProfiler service)
Procedure: as §1, §2, §3

Flt4 (h) = molecular target: T29, Flt4 (h) (Homo sapiens, UniProt P35916)
T29 construct: purchased Eurofins (KinaseProfiler service)
Procedure: as §1, §2, §3

SGK3 (h) = molecular target: T30, SGK3 (h) (Homo sapiens, UniProt Q96BR1)
T30 construct: purchased Eurofins
Procedure: as §1, §2, §3

Fgr (h) = molecular target: T31, Fgr (h) (Homo sapiens, UniProt P09769)
T31 construct: purchased Eurofins (KinaseProfiler service)
Procedure: as §1, §2, §3

PTK5 (h) = molecular target: T32, PTK5 (h) (Homo sapiens, UniProt P42685)
T32 construct: purchased Eurofins
Procedure: as §1, §2, §3

TNIK (h) = molecular target: T33, TNIK (h) (Homo sapiens, UniProt Q9UKE5)
T33 construct: purchased Eurofins
Procedure: as §1, §2, §3

CDKL3 (h) = molecular target: T34, CDKL3 (h) (Homo sapiens, UniProt Q8IVW4)
T34 construct: purchased Eurofins (KinaseProfiler service)
Procedure: as §1, §2, §3

Met (h) = molecular target: T35, Met (h) (Homo sapiens, UniProt P08581)
T35 construct: purchased Eurofins (KinaseProfiler service)
Procedure: as §1, §2, §3

T25 sequence (P04049 whole entry): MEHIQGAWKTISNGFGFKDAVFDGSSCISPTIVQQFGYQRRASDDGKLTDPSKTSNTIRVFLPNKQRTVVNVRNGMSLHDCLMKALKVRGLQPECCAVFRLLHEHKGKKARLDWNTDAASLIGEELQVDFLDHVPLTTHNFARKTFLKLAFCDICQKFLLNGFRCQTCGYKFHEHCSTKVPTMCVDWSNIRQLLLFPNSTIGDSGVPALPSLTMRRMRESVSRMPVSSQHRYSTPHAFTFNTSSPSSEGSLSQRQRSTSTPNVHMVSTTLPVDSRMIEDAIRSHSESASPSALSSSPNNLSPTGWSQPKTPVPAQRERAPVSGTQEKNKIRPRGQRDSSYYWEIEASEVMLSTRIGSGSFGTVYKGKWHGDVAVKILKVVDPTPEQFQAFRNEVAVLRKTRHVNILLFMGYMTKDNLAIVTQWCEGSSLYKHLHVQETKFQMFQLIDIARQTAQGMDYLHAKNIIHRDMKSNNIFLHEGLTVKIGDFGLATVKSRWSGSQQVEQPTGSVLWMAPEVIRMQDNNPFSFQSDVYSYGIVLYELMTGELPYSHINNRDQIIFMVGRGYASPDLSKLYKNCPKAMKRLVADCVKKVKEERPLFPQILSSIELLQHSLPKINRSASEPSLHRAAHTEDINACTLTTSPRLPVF
T17 sequence (P07949 29-1114): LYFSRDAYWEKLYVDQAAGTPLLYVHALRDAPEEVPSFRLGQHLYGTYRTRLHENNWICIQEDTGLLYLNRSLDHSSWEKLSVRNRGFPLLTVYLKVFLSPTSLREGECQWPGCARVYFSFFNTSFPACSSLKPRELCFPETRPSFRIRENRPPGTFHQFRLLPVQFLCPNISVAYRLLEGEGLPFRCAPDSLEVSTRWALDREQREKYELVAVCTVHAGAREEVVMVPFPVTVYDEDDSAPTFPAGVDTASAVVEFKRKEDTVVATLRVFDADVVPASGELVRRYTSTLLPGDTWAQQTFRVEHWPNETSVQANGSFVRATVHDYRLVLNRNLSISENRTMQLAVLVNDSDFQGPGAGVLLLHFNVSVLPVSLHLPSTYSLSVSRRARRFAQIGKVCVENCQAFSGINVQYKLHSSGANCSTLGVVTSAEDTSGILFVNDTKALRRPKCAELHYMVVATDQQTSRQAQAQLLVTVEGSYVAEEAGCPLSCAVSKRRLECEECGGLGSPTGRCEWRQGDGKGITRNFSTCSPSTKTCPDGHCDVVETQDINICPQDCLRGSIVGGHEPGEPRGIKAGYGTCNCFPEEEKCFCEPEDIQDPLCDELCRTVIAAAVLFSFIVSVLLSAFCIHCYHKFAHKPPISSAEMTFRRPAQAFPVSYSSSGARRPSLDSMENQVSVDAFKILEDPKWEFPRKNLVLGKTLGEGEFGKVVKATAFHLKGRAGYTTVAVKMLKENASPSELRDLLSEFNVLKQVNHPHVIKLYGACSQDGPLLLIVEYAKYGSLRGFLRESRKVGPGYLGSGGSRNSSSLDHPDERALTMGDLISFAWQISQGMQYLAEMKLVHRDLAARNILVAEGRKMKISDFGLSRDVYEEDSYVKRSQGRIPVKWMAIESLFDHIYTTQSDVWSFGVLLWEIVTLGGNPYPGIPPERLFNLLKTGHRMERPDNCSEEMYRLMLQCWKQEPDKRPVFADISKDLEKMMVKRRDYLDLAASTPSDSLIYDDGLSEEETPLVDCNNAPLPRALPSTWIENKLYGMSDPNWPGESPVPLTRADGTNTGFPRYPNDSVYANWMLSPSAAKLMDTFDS
T12 sequence (Q15303 26-1308): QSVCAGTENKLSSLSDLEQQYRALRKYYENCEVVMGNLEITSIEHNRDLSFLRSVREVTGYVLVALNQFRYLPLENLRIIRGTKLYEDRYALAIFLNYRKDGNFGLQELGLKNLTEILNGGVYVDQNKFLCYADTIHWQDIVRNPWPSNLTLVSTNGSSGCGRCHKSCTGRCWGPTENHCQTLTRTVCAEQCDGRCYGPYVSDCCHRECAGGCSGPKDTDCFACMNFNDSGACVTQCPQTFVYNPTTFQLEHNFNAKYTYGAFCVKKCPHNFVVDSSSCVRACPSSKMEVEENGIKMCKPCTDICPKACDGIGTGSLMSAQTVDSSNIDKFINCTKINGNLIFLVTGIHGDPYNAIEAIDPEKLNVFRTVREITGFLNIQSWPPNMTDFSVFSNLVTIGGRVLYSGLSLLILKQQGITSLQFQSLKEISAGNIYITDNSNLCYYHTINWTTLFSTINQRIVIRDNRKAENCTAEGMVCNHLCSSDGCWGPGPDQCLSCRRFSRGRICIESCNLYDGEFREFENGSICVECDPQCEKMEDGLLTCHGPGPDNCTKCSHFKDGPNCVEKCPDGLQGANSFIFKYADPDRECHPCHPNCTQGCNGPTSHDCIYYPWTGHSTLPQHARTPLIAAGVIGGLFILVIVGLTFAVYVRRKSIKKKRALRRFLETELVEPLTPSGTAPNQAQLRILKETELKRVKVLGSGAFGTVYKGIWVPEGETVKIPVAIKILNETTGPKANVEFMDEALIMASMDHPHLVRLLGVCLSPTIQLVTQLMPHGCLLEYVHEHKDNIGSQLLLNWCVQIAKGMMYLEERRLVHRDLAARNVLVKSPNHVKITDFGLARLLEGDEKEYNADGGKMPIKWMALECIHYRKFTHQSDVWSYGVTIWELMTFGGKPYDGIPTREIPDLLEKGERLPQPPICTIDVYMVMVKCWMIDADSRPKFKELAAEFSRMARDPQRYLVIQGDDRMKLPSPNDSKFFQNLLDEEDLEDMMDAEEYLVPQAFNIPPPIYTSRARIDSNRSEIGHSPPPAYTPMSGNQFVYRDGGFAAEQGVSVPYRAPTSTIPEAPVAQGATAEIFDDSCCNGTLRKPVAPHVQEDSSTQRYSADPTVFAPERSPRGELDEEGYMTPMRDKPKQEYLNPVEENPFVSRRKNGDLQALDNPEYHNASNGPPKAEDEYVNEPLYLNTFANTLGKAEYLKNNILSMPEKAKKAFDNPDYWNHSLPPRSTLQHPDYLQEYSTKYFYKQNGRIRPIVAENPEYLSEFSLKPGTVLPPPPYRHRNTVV
T31 sequence (P09769 whole entry): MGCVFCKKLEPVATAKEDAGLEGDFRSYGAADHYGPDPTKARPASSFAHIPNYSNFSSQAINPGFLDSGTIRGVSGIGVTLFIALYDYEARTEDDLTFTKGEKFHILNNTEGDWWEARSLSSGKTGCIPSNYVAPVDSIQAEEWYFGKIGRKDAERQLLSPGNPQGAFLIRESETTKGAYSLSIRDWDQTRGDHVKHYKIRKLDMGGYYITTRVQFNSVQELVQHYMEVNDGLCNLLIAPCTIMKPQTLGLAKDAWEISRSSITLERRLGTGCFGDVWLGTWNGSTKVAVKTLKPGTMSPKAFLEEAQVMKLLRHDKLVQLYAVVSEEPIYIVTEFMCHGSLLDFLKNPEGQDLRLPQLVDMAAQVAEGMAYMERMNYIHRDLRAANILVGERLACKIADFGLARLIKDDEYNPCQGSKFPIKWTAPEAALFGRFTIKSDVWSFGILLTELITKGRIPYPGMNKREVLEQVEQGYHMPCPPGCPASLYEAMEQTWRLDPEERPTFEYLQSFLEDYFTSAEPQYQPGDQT
T29 sequence (P35916 25-1363): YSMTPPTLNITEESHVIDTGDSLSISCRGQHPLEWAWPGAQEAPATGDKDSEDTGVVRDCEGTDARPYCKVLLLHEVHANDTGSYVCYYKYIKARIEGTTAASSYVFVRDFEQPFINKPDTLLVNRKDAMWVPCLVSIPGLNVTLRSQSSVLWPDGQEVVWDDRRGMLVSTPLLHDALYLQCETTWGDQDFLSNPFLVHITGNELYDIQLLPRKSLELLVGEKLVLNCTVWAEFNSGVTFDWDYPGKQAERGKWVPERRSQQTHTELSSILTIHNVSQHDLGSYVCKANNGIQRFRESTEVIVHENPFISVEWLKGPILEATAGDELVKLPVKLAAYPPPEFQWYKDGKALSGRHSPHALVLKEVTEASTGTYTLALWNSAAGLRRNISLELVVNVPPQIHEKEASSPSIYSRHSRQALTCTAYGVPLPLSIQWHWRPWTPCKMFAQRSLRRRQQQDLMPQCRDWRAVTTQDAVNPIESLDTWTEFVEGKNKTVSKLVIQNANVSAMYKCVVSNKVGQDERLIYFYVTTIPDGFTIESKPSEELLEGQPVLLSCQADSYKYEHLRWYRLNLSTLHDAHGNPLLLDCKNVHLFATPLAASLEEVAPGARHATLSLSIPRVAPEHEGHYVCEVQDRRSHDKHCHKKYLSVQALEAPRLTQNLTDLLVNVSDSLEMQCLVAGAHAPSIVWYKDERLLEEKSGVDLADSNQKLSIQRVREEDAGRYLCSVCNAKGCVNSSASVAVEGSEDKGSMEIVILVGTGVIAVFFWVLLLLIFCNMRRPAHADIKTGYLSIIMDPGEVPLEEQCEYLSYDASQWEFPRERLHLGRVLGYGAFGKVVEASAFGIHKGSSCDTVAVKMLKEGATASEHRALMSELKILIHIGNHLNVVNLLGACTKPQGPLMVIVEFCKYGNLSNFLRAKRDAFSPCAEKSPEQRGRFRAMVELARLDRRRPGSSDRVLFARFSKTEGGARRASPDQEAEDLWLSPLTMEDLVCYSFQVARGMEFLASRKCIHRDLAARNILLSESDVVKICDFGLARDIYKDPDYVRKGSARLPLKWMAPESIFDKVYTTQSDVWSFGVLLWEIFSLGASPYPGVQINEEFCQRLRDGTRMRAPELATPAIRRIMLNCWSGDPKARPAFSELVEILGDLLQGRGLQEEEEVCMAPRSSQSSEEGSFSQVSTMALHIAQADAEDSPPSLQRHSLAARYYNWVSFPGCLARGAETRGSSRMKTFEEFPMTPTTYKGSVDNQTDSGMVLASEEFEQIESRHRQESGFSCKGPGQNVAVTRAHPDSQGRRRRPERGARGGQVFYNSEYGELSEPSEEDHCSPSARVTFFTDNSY

Cc1cc(Oc2cc(NC(=O)C3CC3)ncn2)ccc1NC(=O)Nc1ccc(Cl)c(C(F)(F)F)c1 [CBT-102]
IC50 (ZAK (h)): 26 nM | IC50 (cKit (V654A) (h)): 278 nM | IC50 (LOK (h)): 1090 nM | IC50 (BRK (h)): > 10000 nM | IC50 (Flt3 (h)): 1090 nM | IC50 (IGF-1R (h)): > 10000 nM | IC50 (B-Raf (V599E) (h)): 115 nM | IC50 (SLK (h)): 879 nM | IC50 (IRAK4 (h)): > 10000 nM | IC50 (cSRC (h)): 2500 nM | IC50 (TAK1 (h)): 481 nM | IC50 (ErbB4 (h)): > 10000 nM | IC50 (IR (h)): > 10000 nM | IC50 (Lck (h)): 1340 nM | IC50 (B-Raf (h)): 348 nM | IC50 (PKA (h)): > 10000 nM | IC50 (Ret (h)): 43 nM | IC50 (cKit (D816V) (h)): > 10000 nM | IC50 (EphB4 (h)): 486 nM | IC50 (MLK1 (h)): 6060 nM | IC50 (KDR (h)): 25 nM | IC50 (DDR1 (h)): 34 nM | IC50 (FGFR4 (h)): > 10000 nM | IC50 (Pim-1 (h)): > 10000 nM | IC50 (c-RAF (h)): 31 nM | IC50 (EphA1 (h)): 1110 nM | IC50 (RIPK2 (h)): 107 nM | IC50 (EphB2 (h)): 418 nM | IC50 (Flt4 (h)): 8 nM | IC50 (SGK3 (h)): > 10000 nM | IC50 (Fgr (h)): 1430 nM | IC50 (PTK5 (h)): 52 nM | IC50 (TNIK (h)): 113 nM | IC50 (CDKL3 (h)): > 10000 nM | IC50 (Met (h)): 2860 nM
